# System: OVCAR-5 complex spheroids, viability
# Test: Anticancer human tumor OVCAR-5 cell line growth inhibition;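 note: spheroids exposed to agents for seven days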;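 for viability, T/C: 100% = DMSO vehicle control wells viability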
# Details: for IC50: curve of first compound; for viability, T/C: stronger effect = lower value
# Method in brief: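 Drug combinations with the LSD1 inhibitor iadademstat tested on tumor cells co-cultured as spheroids with endothelial cells and mesenchymal stem cells. Concentrations descended in half-log increments from clinical Cmax or 10 microM.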
# [1] = second compound 0.1 µM, first compound 0.00949 µM
# [2] = second compound 0.1 µM, first compound 0.03 µM
# [3] = second compound 0.1 µM, first compound 0.0949 µM
# [4] = second compound 0.1 µM, first compound 0.3 µM
# [5] = second compound 0.316 µM, first compound 0.00949 µM
# [6] = second compound 0.316 µM, first compound 0.03 µM
# [7] = second compound 0.316 µM, first compound 0.0949 µM
# [8] = second compound 0.316 µM, first compound 0.3 µM
# [9] = second compound 1 µM, first compound 0.00949 µM
# [10] = second compound 1 µM, first compound 0.03 µM
# [11] = second compound 1 µM, first compound 0.0949 µM
# [12] = second compound 1 µM, first compound 0.3 µM
# [13] = second compound 3.16 µM, first compound 0.00949 µM
# [14] = second compound 3.16 µM, first compound 0.03 µM
# [15] = second compound 3.16 µM, first compound 0.0949 µM
# [16] = second compound 3.16 µM, first compound 0.3 µM
# [17] = second compound 10 µM, first compound 0.00949 µM
# [18] = second compound 10 µM, first compound 0.03 µM
# [19] = second compound 10 µM, first compound 0.0949 µM
# [20] = second compound 10 µM, first compound 0.3 µM
compound,measurement,setting,value
CCN(c1cc(-c2ccc(CN3CCOCC3)cc2)cc(C(=O)NCc2c(C)cc(C)[nH]c2=O)c1C)C1CCOCC1 + NC1CC1c1ccc(-c2cccc(O)c2)cc1,IC50,second compound 0.1 µM,> 3000 nM
same,IC50,second compound 0.316 µM,> 3000 nM
same,IC50,second compound 1 µM,> 3000 nM
same,IC50,second compound 3.16 µM,> 3000 nM
same,IC50,second compound 10 µM,> 3000 nM
same,"viability, T/C",[1],87.6%
same,"viability, T/C",[2],98.8%
same,"viability, T/C",[3],106%
same,"viability, T/C",[4],97%
same,"viability, T/C","second compound 0.1 µM, first compound 0.949 µM",107%
same,"viability, T/C","second compound 0.1 µM, first compound 3 µM",92.6%
same,"viability, T/C",[5],102%
same,"viability, T/C",[6],108%
same,"viability, T/C",[7],99.3%
same,"viability, T/C",[8],94.8%
same,"viability, T/C","second compound 0.316 µM, first compound 0.949 µM",104%
same,"viability, T/C","second compound 0.316 µM, first compound 3 µM",102%
same,"viability, T/C",[9],91.5%
same,"viability, T/C",[10],84.4%
same,"viability, T/C",[11],94.3%
same,"viability, T/C",[12],103%
same,"viability, T/C","second compound 1 µM, first compound 0.949 µM",91.9%
same,"viability, T/C","second compound 1 µM, first compound 3 µM",98.5%
same,"viability, T/C",[13],88.8%
same,"viability, T/C",[14],87.7%
same,"viability, T/C",[15],90.4%
same,"viability, T/C",[16],90.9%
same,"viability, T/C","second compound 3.16 µM, first compound 0.949 µM",90.6%
same,"viability, T/C","second compound 3.16 µM, first compound 3 µM",92.9%
same,"viability, T/C",[17],86.7%
same,"viability, T/C",[18],91.9%
same,"viability, T/C",[19],85.5%
same,"viability, T/C",[20],93.4%
same,"viability, T/C","second compound 10 µM, first compound 0.949 µM",95.5%
same,"viability, T/C","second compound 10 µM, first compound 3 µM",91.1%
Nc1ncn(C2CC(O)C(CO)S2)c(=O)n1 (stereo not given) + NC1CC1c1ccc(-c2cccc(O)c2)cc1,IC50,second compound 0.1 µM,> 300 nM
same,IC50,second compound 0.316 µM,> 300 nM
same,IC50,second compound 1 µM,> 300 nM
same,IC50,second compound 3.16 µM,> 300 nM
same,IC50,second compound 10 µM,> 300 nM
same,"viability, T/C","second compound 0.1 µM, first compound 0.000949 µM",100%
same,"viability, T/C","second compound 0.1 µM, first compound 0.003 µM",110%
same,"viability, T/C",[1],104%
same,"viability, T/C",[2],95%
same,"viability, T/C",[3],80.9%
same,"viability, T/C",[4],71.2%
same,"viability, T/C","second compound 0.316 µM, first compound 0.000949 µM",107%
same,"viability, T/C","second compound 0.316 µM, first compound 0.003 µM",112%
same,"viability, T/C",[5],108%
same,"viability, T/C",[6],96.2%
same,"viability, T/C",[7],88.5%
same,"viability, T/C",[8],69.8%
same,"viability, T/C","second compound 1 µM, first compound 0.000949 µM",93.7%
same,"viability, T/C","second compound 1 µM, first compound 0.003 µM",86.6%
same,"viability, T/C",[9],93.9%
same,"viability, T/C",[10],92.4%
same,"viability, T/C",[11],74.7%
same,"viability, T/C",[12],61.7%
same,"viability, T/C","second compound 3.16 µM, first compound 0.000949 µM",95.8%
same,"viability, T/C","second compound 3.16 µM, first compound 0.003 µM",97.8%
same,"viability, T/C",[13],91.3%
same,"viability, T/C",[14],81.6%
same,"viability, T/C",[15],79.8%
same,"viability, T/C",[16],64.4%
same,"viability, T/C","second compound 10 µM, first compound 0.000949 µM",79%
same,"viability, T/C","second compound 10 µM, first compound 0.003 µM",93.6%
same,"viability, T/C",[17],84.8%
same,"viability, T/C",[18],78.1%
same,"viability, T/C",[19],70%
same,"viability, T/C",[20],60%
O=C(C=Cn1cnc(-c2cc(C(F)(F)F)cc(C(F)(F)F)c2)n1)NNc1cnccn1 + NC1CC1c1ccc(-c2cccc(O)c2)cc1,IC50,second compound 0.1 µM,55.6 nM
same,IC50,second compound 0.316 µM,50.5 nM
same,IC50,second compound 1 µM,39.1 nM
same,IC50,second compound 3.16 µM,23 nM
same,IC50,second compound 10 µM,19.8 nM
same,"viability, T/C","second compound 0.1 µM, first compound 0.00316 µM",88.9%
same,"viability, T/C","second compound 0.1 µM, first compound 0.01 µM",73.9%
same,"viability, T/C","second compound 0.1 µM, first compound 0.0316 µM",57.2%
same,"viability, T/C","second compound 0.1 µM, first compound 0.1 µM",42.1%
same,"viability, T/C","second compound 0.1 µM, first compound 0.316 µM",38%
same,"viability, T/C","second compound 0.1 µM, first compound 1 µM",33.9%
same,"viability, T/C","second compound 0.316 µM, first compound 0.00316 µM",87.8%
same,"viability, T/C","second compound 0.316 µM, first compound 0.01 µM",72%
same,"viability, T/C","second compound 0.316 µM, first compound 0.0316 µM",54.9%
same,"viability, T/C","second compound 0.316 µM, first compound 0.1 µM",42.2%
same,"viability, T/C","second compound 0.316 µM, first compound 0.316 µM",39.1%
same,"viability, T/C","second compound 0.316 µM, first compound 1 µM",34.4%
same,"viability, T/C","second compound 1 µM, first compound 0.00316 µM",84%
same,"viability, T/C","second compound 1 µM, first compound 0.01 µM",65.9%
same,"viability, T/C","second compound 1 µM, first compound 0.0316 µM",53.8%
same,"viability, T/C","second compound 1 µM, first compound 0.1 µM",39.4%
same,"viability, T/C","second compound 1 µM, first compound 0.316 µM",36.2%
same,"viability, T/C","second compound 1 µM, first compound 1 µM",31.7%
same,"viability, T/C","second compound 3.16 µM, first compound 0.00316 µM",81.7%
same,"viability, T/C","second compound 3.16 µM, first compound 0.01 µM",62.9%
same,"viability, T/C","second compound 3.16 µM, first compound 0.0316 µM",43.1%
same,"viability, T/C","second compound 3.16 µM, first compound 0.1 µM",38.5%
same,"viability, T/C","second compound 3.16 µM, first compound 0.316 µM",34.7%
same,"viability, T/C","second compound 3.16 µM, first compound 1 µM",29.7%
same,"viability, T/C","second compound 10 µM, first compound 0.00316 µM",79%
same,"viability, T/C","second compound 10 µM, first compound 0.01 µM",60.8%
same,"viability, T/C","second compound 10 µM, first compound 0.0316 µM",42.6%
same,"viability, T/C","second compound 10 µM, first compound 0.1 µM",36.6%
same,"viability, T/C","second compound 10 µM, first compound 0.316 µM",33.6%
same,"viability, T/C","second compound 10 µM, first compound 1 µM",35.2%

# From PubChem BioAssay AID1918956 (Molecular Pharmacology Branch, DTP, NCI, 2023)
